Results taken from patent US6495594B2, “Biologically active analogs of discodermolide” (Harbor Branch Oceanographic Institution, Inc., priority 2000, dated 2002).

Test system: A549 human adenocarcinoma tumor cells
Assay: Microtubule bundling patterns in tumor cells by immunofluorescence
Type: cell-based
Set-up: key to Microtubule bundling in A549 cells: −: no effect; +/−: minimal or questionable effect; +: weak effect; ++: strong effect; +++: very strong effect equivalent to discodermolide
Settings: for Microtubule bundling in A549 cells: subjective rating versus discodermolide
Experimental: Discodermolide and discodermolide analogs were evaluated as to their effects on the morphology of the microtubule network of cells using mouse anti-alpha-tubulin monoclonal antibody.
On day one, 7×10^4 adherent A549 human adenocarcinoma tumor cells were cultured in TCM overnight at 37° C. in 5% CO2 on 22 mm^2 cover slips in 6-well microtiter plates. On day two, TCM was removed and replaced with 10-1000 nM discodermolide or analog in TCM or TCM without drug (control) and incubated overnight at 37° C. in 5% CO2. On day three, TCM was removed and cells attached to cover slips were fixed with a 3.7% formaldehyde solution in Dulbecco's PBS for 10 minutes at room temperature. Cells were permeabilized with a 2% Triton X-100 solution, 2 mL per well, for 5 minutes at room temperature and washed twice in Dulbecco's PBS prior to staining.
To each well containing cells attached to cover slips a 2 mL volume of mouse anti- alpha-tubulin monoclonal antibody (Cat# T-5168, Sigma Chemical Co., St. Louis, Mo.) diluted 1:1000 in Dulbecco's phosphate buffered saline (D-PBS) was added and the cells incubated at room temperature for 45 minutes. Cover slips were rinsed once with D-PBS. A 2 mL volume of goat-anti-mouse-IgG-FITC conjugated antibody (Cat# T-5262, Sigma Chemical Co., St. Louis, Mo.) diluted 1:1000 in D-PBS was added and the cells incubated at room temperature for 45 minutes. Cover slips were rinsed once in D-PBS and DNA was stained with 0.02 mg/mL propidium iodide together with 0.1 mg/mL of ribonuclease A (RNAse) A in D-PBS at 37° C. for 30 minutes. Cover slips were rinsed three times with sterile distilled water, air-dried and mounted on slides with SlowFade™ antifade solution (Molecular Probes, Eugene, Oreg.) and observed under the microscope using epifluorescence illumination for the presence of abnormal aster and microtubule bundle formations.

Structure (SMILES)	Microtubule bundling observation (100 nM)	Microtubule bundling observation (1000 nM)	Discodermolide concentration giving equivalent morphological changes (analog at 100 nM)	Discodermolide concentration giving equivalent morphological changes (analog at 1000 nM)	Microtubule bundling in A549 cells (Table 11)	Cells with multiple aster formations, share of the population undergoing mitosis (100 nM)	Microtubule bundling observation (10 nM)	Microtubule bundling in A549 cells (Table 12)
C=CC=CC(C)C(OC(N)=O)C(C)C(O)C(C)CC(C)=CC(C)C(O)C(C)C=CC(O)CC1OC(=O)CC(O)C1C (stereo not drawn) [2-Desmethyldiscodermolide (II), 2-desmethyldiscodermolide]	Some thin or short peripheral microtubule bundling	extensive microtubule bundling	20-50 nM	1000 nM	+++			
C=C/C=C\[C@H](C)[C@H](OC(N)=O)[C@@H](C)[C@H](O)[C@@H](C)C/C(C)=C\[C@H](C)[C@@H](O)[C@@H](C)/C=C\[C@@H](O)C[C@@H]1OC(=O)[C@@H](C)[C@@H](O)[C@H]1C [2-Epidiscodermolide (IV), 2-epidiscodermolide]	no microtubule matrix bundling	Some minor, peripheral, polymerization of microtubule matrix		~20 nM	+	less than 10%		
CCCCC(C)C(OC(N)=O)C(C)C(O)C(C)CC(C)=CC(C)C(O)C(C)CCCCC1OC(=O)C(C)C(O)C1C (stereo not drawn) [7-deoxy-8,21,23-hexahydrodiscodermolide]	small amount of microtubule bundling visible in some cells	strong microtubule bundling	~10 nM	100 nM			no visible effect on the microtubule matrix	++
CCCCC(C)C(OC(N)=O)C(C)C(O)C(C)CC(C)=CC(C)C(O)C(C)CCC(O)CC1OC(=O)C(C)C(O)C1C (stereo not drawn) [8,21,23-Hexahydrodiscodermolide (XII), 8,21,23-hexahydrodiscodermolide]	Microtubule bundling was evident	Microtubule bundling was evident						++
C=CC=CC(C)C(O)C(C)C(O)C(C)CC(C)=CC(C)C(O)C(C)C=CC(O)CC1OC(=O)C(C)C(O)C1C (stereo not drawn) [19-Desaminocarbonyldiscodermolide (III), 19-desaminocarbonyldiscodermolide]	some microtubule bundling	moderate amount of microtubule bundling	10-20 nM	50-100 nM	++			
